Test results published in US6784309B2, “Method for the purification of N-[N-(3,3-dimethylbutyl)-L-α-aspartyl]-L-phenylalanine 1-methyl ester” (The Nutrasweet Company, priority 1999, dated 2004).

Legend:
[1] = relative to sucrose; cited from earlier work
[2] = solubility compared to neotame; assay type: physicochemical; settings: relative to neotame; for solubility compared to neotame: crystallization context

| Compound | solubility compared to neotame [2] | also measured |
| --- | --- | --- |
| COC(=O)C(Cc1ccccc1)NC(=O)C(CC(=O)O)NCCC(C)(C)C [neotame, N-[N-(3,3-dimethylbutyl)-L-α-aspartyl]-L-phenylalanine 1-methyl ester] | – | sweetness potency (sweeter than sucrose) [1]: about 8000 X |
| COC(=O)[C@H](Cc1ccccc1)NC(=O)[C@H](CC(=O)O)N(CCC(C)(C)C)CCC(C)(C)C [dialkylated aspartame, N,N-di(3,3-dimethylbutyl)-L-aspartyl-L-phenylalanine methyl ester] | very similar solubilities | – |
| CC(C)(C)CCN[C@@H](CC(=O)O)C(=O)N[C@@H](Cc1ccccc1)C(=O)O [demethylated α-neotame, N-[N-(3,3-dimethylbutyl)-L-α-aspartyl]-L-phenylalanine] | – | solubility in water compared to neotame ([2]; water): more soluble in water |
| COC(=O)C[C@H](NCCC(C)(C)C)C(=O)NC(Cc1ccccc1)C(=O)OC (stereo partly drawn) [methyl ester of α-neotame, methyl ester of N-[N-(3,3-dimethylbutyl)-L-α-aspartyl]-L-phenylalanine 1-methyl ester] | very similar solubilities | – |
| COC(=O)[C@H](Cc1ccccc1)N1C(=O)C(CC(=O)O)N(CCC(C)(C)C)C1CC(C)(C)C (stereo partly drawn) [dialkylated imidazolidinone, α-methyl hydrogen-3-(3,3-dimethylbutyl)-2-L-(2,2-dimethylpropyl)-5-oxo-α-L-(phenylmethyl)-1,4(L)-imidazolidine diacetate] | very similar solubilities | – |
